Experimental data published in the supplement of paper PMC7023306.
± gives the uncertainty stated by the source.

Test: TIMS collision cross section in N2 (TIMS CCS N2); higher = larger gas-phase ion size
Details: drift gas: N2 (99.4% N2, 0.6% O2), calibration: Stow et al. 2017 values for Agilent ESI-L Low Concentration Tune Mix, ionization: negative ESI
Protocol: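 Authentic plant natural product standards (10-50 ppm in 80% methanol) were analysed by UHPLC (BEH C18, 60 °C) coupled to a Bruker timsTOF Pro in negative ESI with N2 drift gas. TIMS collision cross sections were computed from mobility peak apices after calibration with Agilent Tune Mix using Stow et al. reference values. Values are the average of triplicate runs on different days, reported per annotated ion species (deprotonated ion, adducts, dimer, oxidized ion).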

Structure (SMILES) | TIMS collision cross section in N2 (ion species: [M-H]-) [Å²] | TIMS collision cross section in N2 (ion species: [2M-H]-) [Å²] | TIMS collision cross section in N2 (ion species: [M-3H]-) [Å²] | TIMS collision cross section in N2 (ion species: [M-H+Na+HCO2H]-) [Å²]
Oc1cc(O)c2c(c1)OC(c1ccc(O)c(O)c1)C(O)C2 (single isomer, unassigned; (+)) [(+)-Catechin] | 157.43 ± 0.095 |  |  | 
O=C(/C=C/c1ccccc1)c1ccc(O)cc1O [2',4'-Dihydroxychalcone] | 158.57 ± 0.14 |  |  | 
COc1ccc(C(=O)/C=C/c2ccccc2)c(O)c1 [2'-Hydroxy-4'-methoxychalcone] | 163.91 ± 0.055 |  |  | 
COc1ccc(C=CC(=O)c2ccccc2O)cc1 [2'-Hydroxy-4-methoxychalcone] | 164.38 ± 0.046 |  |  | 
O=c1cc(-c2ccccc2O)oc2ccccc12 [2'-Hydroxyflavone] | 149.95 ± 0.12 |  |  | 
O=c1c(-c2ccc(O)c(O)c2)coc2cc(O)ccc12 [3',4',7-Trihydroxyisoflavone] | 161.78 ± 0.026 | 217.7 ± 0.21 | 155.92 ± 0.067 | 
COc1ccc(C2CC(=O)c3ccc(O)cc3O2)cc1OC (stereo not drawn) [3',4'-Dimethoxy-7-hydroxyflavanone] | 180.72 ± 0.067 | 241.38 ± 0.035 |  | 
O=c1cc(-c2cccc(O)c2)oc2ccccc12 [3'-Hydroxyflavone] | 154.89 ± 0.41 | 218.5 ± 0.57 |  | 
COc1ccc(-c2cc3ccc(O)cc3oc2=O)cc1OC [3(3',4'-Dimethoxyphenyl)-7-hydroxycoumarin] | 172.02 ± 0.17 | 276.72 ± 0.47 |  | 
O=c1c(O)c(-c2cccc(O)c2O)oc2ccc(O)cc12 [3,6,2',3'-Tetrahydroxyflavone] | 161.7 ± 0.14 |  | 161.13 ± 0.17 | 
O=c1c(O)c(-c2ccc(O)cc2O)oc2ccc(O)cc12 [3,6,2',4'-Tetrahydroxyflavone] | 161.99 ± 0.064 |  |  | 183.33 ± 0.05
O=c1c(O)c(-c2cc(O)c(O)c(O)c2)oc2cc(O)ccc12 [3,7,3',4',5'-Pentrahydroxyflavone (robinetin)] | 164.55 ± 0.2 |  | 160.55 ± 0.095 | 
O=C1c2ccc(O)cc2O[C@H](c2ccc(O)c(O)c2)[C@H]1O [3,7,3',4'-Tetrahydroxyflavanone (fustin)] | 154.57 ± 0.12 |  | 160.22 ± 0.11 | 
CC1(C)CCC2(C(=O)OC3OC(CO)C(O)C(O)C3O)CCC3(C)C(=CCC4C5(C)CC(O)C(OC6OC(CO)C(O)C(O)C6O)C(C)(C(=O)O)C5CCC43C)C2C1 (stereo not drawn) [3-Glc, 28-Glc medicagenic acid] | 300.86 ± 0.71 |  |  | 
O=c1c(O)c(-c2ccccc2)oc2ccccc12 [3-Hydroxyflavone] | 152.04 ± 0.28 |  |  | 172.34 ± 0.36
O=c1cc(-c2ccc(O)cc2)oc2ccccc12 [4'-Hydroxyflavone] | 151.91 ± 0.13 |  |  | 
COc1cc(OC)c(C(=O)C=Cc2ccc(O)cc2)c(OC)c1 [4-Hydroxy-2',4',6'-trimethoxychalcone (flavokawain A)] | 182.42 ± 0.24 |  |  | 
O=c1cc(-c2ccc(O)c(O)c2)oc2cccc(O)c12 [5,3',4'-Trihydroxyflavone] | 156.4 ± 0.18 | 244.46 ± 0.1 |  | 
COc1ccc(C2CC(=O)c3c(ccc(O)c3O)O2)cc1OC (stereo not drawn) [5,6-dihydroxy-3',4'-dimethoxy-flavanone] | 176.56 ± 0.17 |  | 179.11 ± 0.078 | 192.04 ± 0.13
COc1cc(-c2cc(=O)c3c(O)c(OC)c(O)cc3o2)cc(OC)c1O [5,7,4'-trihydroxy-6,3',5'-trimethoxyflavone] | 183.59 ± 0.17 |  |  | 202.32 ± 0.32
COc1cc(OC)c2c(c1)OC(c1ccc(O)cc1)CC2=O (stereo not drawn) [5,7-DIMETHOXY-4'-HYDROXYFLAVANONE] | 174.1 ± 0.31 |  |  | 
COc1ccccc1-c1cc(=O)c2c(O)cc(O)cc2o1 [5,7-Dihydroxy-2'-methoxyflavone] | 167.34 ± 0.07 | 238.49 ± 0.23 |  | 
COc1ccc(-c2cc(=O)c3c(O)cc(O)cc3o2)cc1 [5,7-Dihydroxy-4'-methoxyflavone] | 170.87 ± 0.1 |  | 165.19 ± 0.13 | 
COc1ccc(C2CC(=O)c3c(O)cc(O)cc3O2)cc1OC (stereo not drawn) [5,7-dihydroxy-3',4'-dimethoxy-flavanone] | 175.95 ± 0.1 | 238.03 ± 0.5 |  | 195.74 ± 0.19
O=C1CC(c2ccccc2)Oc2c(O)ccc(O)c21 (stereo not drawn) [5,8-Dihydroxyflavanone] | 158.38 ± 0.01 |  |  | 

Structure (SMILES) | TIMS collision cross section in N2 (ion species: [M-H]-) [Å²] | TIMS collision cross section in N2 (ion species: [2M-H]-) [Å²] | TIMS collision cross section in N2 (ion species: [M-3H]-) [Å²] | TIMS collision cross section in N2 (ion species: [M-H+Na+HCO2H]-) [Å²]
COc1ccc(C2CC(=O)c3c(O)cccc3O2)cc1OC (stereo not drawn) [5-Hydroxy-3',4'-dimethoxyflavanone] | 174.21 ± 0.21 |  |  | 187.65 ± 0.61
COc1cc(/C=C/C(=O)O)cc(O)c1O [5-Hydroxyferulic acid] | 141.26 ± 0.044 |  |  | 
O=c1cc(-c2ccccc2)oc2cccc(O)c12 [5-Hydroxyflavone] | 156 ± 0.14 |  |  | 173.98 ± 0.31
O=C1CC(c2ccc(O)c(O)c2)Oc2cc(O)c(O)cc21 (stereo not drawn) [6,7,3',4'-Tetrahydroxyflavanone] | 167.53 ± 0.27 |  | 161.92 ± 0.36 | 
O=c1c(-c2ccc(O)cc2)coc2cc(O)c(O)cc12 [6,7,4'-Trihydroxyisoflavone] | 159.49 ± 0.16 | 249.43 ± 0.37 |  | 
CC(C)=CCc1c(O)c(CC=C(C)C)c2c(c1O)C(=O)C[C@@H](c1ccc(O)cc1)O2 [6,8-diprenylnaringenin] | 206.73 ± 0.66 |  |  | 
O=C1CC(c2ccccc2)Oc2ccc(O)cc21 (stereo not drawn) [6-Hydroxyflavanone] | 156.92 ± 0.15 | 244.54 ± 0.11 |  | 
O=c1cc(-c2ccccc2)oc2ccc(O)cc12 [6-Hydroxyflavone] | 155.92 ± 0.15 | 239.79 ± 0.056 |  | 
CC(C)=CCC/C(C)=C/Cc1c(O)cc2c(c1O)C(=O)C[C@@H](c1ccc(O)cc1)O2 [6-geranylnaringenin] | 204.76 ± 0.16 | 275.87 ± 0.17 |  | 
CC(C)=CCc1c(O)cc2c(c1O)C(=O)C[C@@H](c1ccc(O)cc1)O2 [6-prenylnaringenin] | 183.64 ± 0.61 | 235.03 ± 0.42 |  | 
O=c1cc(-c2cc(O)c(O)c(O)c2)oc2cc(O)ccc12 [7,3',4',5'-Tetrahydroxyflavone] | 161.92 ± 0.042 |  |  | 
O=c1c(-c2ccc(O)c(O)c2)coc2cc(O)ccc12 [7,3',4'-TRIHYDROXYISOFLAVONE] | 162.61 ± 0.21 |  | 156.67 ± 0.24 | 
COc1ccc(-c2oc3cc(OC)ccc3c(=O)c2O)cc1 [7,4'-Dimethoxy-3-hydroxyflavone] |  |  |  | 193.67 ± 0.15
COc1ccc(C2CC(=O)c3c(O)cc(OC)cc3O2)cc1 (stereo not drawn) [7,4'-Dimethoxy-5-hydroxyflavanone] | 175.55 ± 0.29 |  |  | 194.46 ± 0.47
O=c1cc(-c2ccc(O)cc2)oc2cc(O)ccc12 [7,4'-dihydroxyflavone] | 157.01 ± 0.16 | 221.31 ± 0.038 |  | 
COc1cccc(-c2cc(=O)c3ccc(O)cc3o2)c1 [7-Hydroxy-3'-methoxyflavone] | 165.22 ± 0.11 | 229.62 ± 0.17 |  | 
COc1ccc(-c2cc(=O)c3ccc(O)cc3o2)cc1 [7-Hydroxy-4'-methoxyflavone] | 165.03 ± 0.085 | 231.78 ± 0.34 |  | 
O=c1cc(-c2ccccc2)oc2cc(O)ccc12 [7-Hydroxyflavone] | 153.67 ± 0.056 | 228.17 ± 0.39 |  | 
COc1ccc2c(=O)cc(-c3ccc(O)cc3)oc2c1 [7-Methoxy-4'-hydroxyflavone] | 164.31 ± 0.31 | 257.82 ± 0.34 |  | 
COc1ccc2c(c1)OC(c1ccccc1)CC2=O (stereo not drawn) [7-Methoxyflavanone] | 163.71 ± 0.025 |  |  | 
COc1ccc(-c2cc3ccc(O)cc3oc2=O)cc1 [7-hydroxy 3(4- methoxyphenyl) coumarin] | 162.79 ± 0.25 |  |  | 
COc1ccc(O)c2c1C(=O)CC(c1ccccc1)O2 (stereo not drawn) [8-Hydroxy-5-methoxyflavanone] | 165.83 ± 0.053 |  |  | 
CC(C)=CCc1c(O)cc(O)c2c1O[C@H](c1ccc(O)cc1)CC2=O [8-prenylnaringenin] | 183.54 ± 0.32 |  |  | 
O=c1cc(-c2ccc(O)cc2)oc2cc(OC3O[C@H](CO)[C@@H](O)[C@H](O)[C@H]3O)cc(O)c12 (stereo partly drawn) [Apigenin-7-O-glucoside (apigetrin)] | 206.74 ± 0.14 |  |  | 228.65 ± 0.32
